Data set [1] has as its target Somatostatin receptor type 5 (Homo sapiens, UniProt P35346). The data set is described as follows: Agonist activity at human SST5 expressed in CHO-K1 cells assessed as reduction in NKH477-induced intracellular cAMP level. Type of data set: functional, cell-based.
The target in data set [2] is Somatostatin receptor type 1 (Homo sapiens, UniProt P30872). Put plainly: Agonist activity at human SST1. Type of data set: functional.
The target in data set [3] is Somatostatin receptor type 2 (Homo sapiens, UniProt P30874). Put plainly: Agonist activity at human SST2. In kind it is functional.
For data set [4], the target named is Somatostatin receptor type 3 (Homo sapiens, UniProt P32745). Put plainly: Agonist activity at human SST3. In kind it is functional.
In data set [5] the target is Somatostatin receptor type 4 (Homo sapiens, UniProt P31391). Put plainly: Agonist activity at human SST4. In kind it is functional.
The target in data set [6] is Somatostatin receptor type 5 (Rattus norvegicus, UniProt P30938). Put plainly: Agonist activity at rat SST5. In kind it is functional.
In data set [7] the target is Voltage-gated inwardly rectifying potassium channel KCNH2 (Homo sapiens, UniProt Q12809). The data set is described as follows: Inhibition of hERG by patch clamp assay. Type of data set: toxicity.
Data set [8] has as its target T1, Cytochrome P450 2D6 (Homo sapiens, UniProt P10635). Put plainly: Inhibition of CYP2D6 (unknown origin). Type of data set: ADME.
Data set [9] has as its target T1, Cytochrome P450 2D6. Put plainly: Inhibition of CYP2D6 (unknown origin) preincubated for 30 mins. Type of data set: ADME.
For data set [10], the target named is T2, Cytochrome P450 3A4 (Homo sapiens, UniProt P08684). The data set is described as follows: Inhibition of CYP3A4 (unknown origin). In kind it is ADME.
The target in data set [11] is T2, Cytochrome P450 3A4. The data set is described as follows: Inhibition of CYP3A4 (unknown origin) preincubated for 30 mins. Type of data set: ADME.
A short description of data set [12]: Metabolic stability in human liver microsomes assessed as intrinsic clearance. Type of data set: ADME, Microsome.
The nature of data set [13]: Metabolic stability in rat liver microsomes assessed as intrinsic clearance. Type of data set: ADME, Microsome.
A short description of data set [14]: Half life in Sprague-Dawley rat at 2.5 mg/kg, iv. The note with it: in vivo. In kind it is ADME, organism-based.
Data set [15] can be described thus: Volume of distribution at steady state in Sprague-Dawley rat at 2.5 mg/kg, iv. In kind it is ADME, organism-based. Conditions: in vivo.
A short description of data set [16]: Cmax in Sprague-Dawley rat at 10 mg/kg, po. Type of data set: ADME, organism-based. More on the design: dose 10 mg/kg, route po. Conditions: in vivo.
The nature of data set [17]: AUC(0 to infinity) in Sprague-Dawley rat at 10 mg/kg, po. In kind it is ADME, organism-based. More on the design: time infinity, dose 10 mg/kg, route po. The note with it: in vivo.
The nature of data set [18]: Oral bioavailability in Sprague-Dawley rat at 10 mg/kg. Conditions: in vivo. Type of data set: ADME, organism-based.
The target in data set [19] is T1, Cytochrome P450 2D6. The data set is described as follows: Time dependent inhibition of CYP2D6 (unknown origin). In kind it is ADME.
Data set [20] concerns the target T1, Cytochrome P450 2D6. The data set is described as follows: Time dependent inhibition of CYP2D6 (unknown origin) preincubated for 30 mins. Type of data set: ADME.
The target in a further data set is Cytochrome P450 2C9 (Homo sapiens, UniProt P11712). The data set is described as follows: Inhibition of CYP2C9 (unknown origin) by fluorescent assay. In kind it is ADME.
The next data set addresses Cytochrome P450 2C19 (Homo sapiens, UniProt P33261). Put plainly: Inhibition of CYP2C19 (unknown origin) by fluorescent assay. Type of data set: ADME.
Data set [21] can be described thus: Metabolic stability in human liver microsomes assessed as half life. In kind it is ADME, Microsome.
A short description of data set [22]: Metabolic stability in rat liver microsomes assessed as half life. Type of data set: ADME, Microsome.
Data set [23] in a line: Metabolic stability in dog liver microsomes assessed as half life. Type of data set: ADME, Canis lupus familiaris, Microsome.
The nature of data set [24]: Metabolic stability in monkey liver microsomes assessed as half life. The note with it: rhesus monkey. In kind it is ADME, Macaca mulatta, Microsome.
Data set [25] is described as follows: Metabolic stability in monkey liver microsomes assessed as intrinsic clearance. In kind it is ADME, Macaca mulatta, Microsome. Conditions: rhesus monkey.
Data set [26] in a line: Half life in Sprague-Dawley rat at 5 mg/kg, iv. Type of data set: ADME, organism-based. Conditions: in vivo.
Data set [27] is described as follows: Half life in Beagle dog at 2.5 mg/kg, iv. Type of data set: ADME, organism-based, Canis lupus familiaris. The note with it: in vivo.
The nature of data set [28]: Volume of distribution at steady state in Sprague-Dawley rat at 5 mg/kg, iv. Type of data set: ADME, organism-based. Conditions: in vivo.
A short description of data set [29]: Volume of distribution at steady state in Beagle dog at 2.5 mg/kg, iv. In kind it is ADME, organism-based, Canis lupus familiaris. Conditions: in vivo.
Data set [30] is described as follows: Cmax in Beagle dog at 5 mg/kg, po. In kind it is ADME, organism-based, Canis lupus familiaris. On the set-up: dose 5 mg/kg, route po. Conditions: in vivo.
Data set [31] is described as follows: AUC(0 to infinity) in Beagle dog at 5 mg/kg, po. Conditions: in vivo. Type of data set: ADME, organism-based, Canis lupus familiaris. More on the design: time infinity, dose 5 mg/kg, route po.
Data set [32] is described as follows: Oral bioavailability in Beagle dog at 5 mg/kg. Type of data set: ADME, organism-based, Canis lupus familiaris. Conditions: in vivo.

Structures are written as SMILES.

Chain of Somatostatin receptor type 5 (Homo sapiens, UniProt P35346) (P35346 whole entry): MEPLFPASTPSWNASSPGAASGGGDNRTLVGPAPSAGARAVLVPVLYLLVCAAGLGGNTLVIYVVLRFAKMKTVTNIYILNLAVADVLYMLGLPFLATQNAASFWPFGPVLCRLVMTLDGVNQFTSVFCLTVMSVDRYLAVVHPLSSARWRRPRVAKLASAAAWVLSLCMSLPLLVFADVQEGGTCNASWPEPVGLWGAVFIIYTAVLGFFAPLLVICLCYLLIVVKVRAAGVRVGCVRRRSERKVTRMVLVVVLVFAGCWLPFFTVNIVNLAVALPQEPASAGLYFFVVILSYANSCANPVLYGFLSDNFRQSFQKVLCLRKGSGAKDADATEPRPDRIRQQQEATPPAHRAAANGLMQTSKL
T2 sequence (P08684 whole entry): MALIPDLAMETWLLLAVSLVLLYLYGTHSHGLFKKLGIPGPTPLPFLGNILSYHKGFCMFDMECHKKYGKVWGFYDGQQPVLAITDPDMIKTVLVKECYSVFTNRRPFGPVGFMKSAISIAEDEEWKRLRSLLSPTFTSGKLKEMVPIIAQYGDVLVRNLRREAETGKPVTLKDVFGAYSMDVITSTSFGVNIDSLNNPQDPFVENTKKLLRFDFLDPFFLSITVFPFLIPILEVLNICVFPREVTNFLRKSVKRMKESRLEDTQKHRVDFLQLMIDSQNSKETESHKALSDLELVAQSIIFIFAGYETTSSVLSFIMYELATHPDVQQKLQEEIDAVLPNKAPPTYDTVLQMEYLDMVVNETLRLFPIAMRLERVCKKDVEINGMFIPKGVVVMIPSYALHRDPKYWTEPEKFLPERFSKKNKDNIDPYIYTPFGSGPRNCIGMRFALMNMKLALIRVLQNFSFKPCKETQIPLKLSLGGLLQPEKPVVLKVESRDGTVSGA
T1 sequence (P10635 whole entry): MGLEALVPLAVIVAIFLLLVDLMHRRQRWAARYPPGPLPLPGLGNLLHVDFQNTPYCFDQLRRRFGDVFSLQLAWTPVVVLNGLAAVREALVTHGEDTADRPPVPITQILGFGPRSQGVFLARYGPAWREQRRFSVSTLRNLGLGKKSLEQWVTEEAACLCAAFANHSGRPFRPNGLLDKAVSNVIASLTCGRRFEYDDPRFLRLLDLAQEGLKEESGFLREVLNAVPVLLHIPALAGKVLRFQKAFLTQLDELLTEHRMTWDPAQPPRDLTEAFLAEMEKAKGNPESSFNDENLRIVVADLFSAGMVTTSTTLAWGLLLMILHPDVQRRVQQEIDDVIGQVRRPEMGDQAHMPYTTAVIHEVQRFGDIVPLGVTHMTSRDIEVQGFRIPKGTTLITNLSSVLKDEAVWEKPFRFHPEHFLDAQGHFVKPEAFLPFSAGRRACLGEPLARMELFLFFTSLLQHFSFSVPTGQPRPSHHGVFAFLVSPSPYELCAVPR
Chain of Somatostatin receptor type 2 (P30874 whole entry): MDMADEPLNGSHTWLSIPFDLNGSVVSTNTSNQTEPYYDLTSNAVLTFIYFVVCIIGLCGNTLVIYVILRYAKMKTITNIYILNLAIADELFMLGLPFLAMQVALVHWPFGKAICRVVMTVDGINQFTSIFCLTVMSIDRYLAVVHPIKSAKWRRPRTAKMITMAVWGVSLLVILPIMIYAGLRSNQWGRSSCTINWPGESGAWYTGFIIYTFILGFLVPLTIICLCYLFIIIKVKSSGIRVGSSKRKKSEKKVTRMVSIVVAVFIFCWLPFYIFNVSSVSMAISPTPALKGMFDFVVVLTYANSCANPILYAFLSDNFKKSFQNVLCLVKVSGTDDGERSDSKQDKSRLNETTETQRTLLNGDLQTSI
Chain of Somatostatin receptor type 1 (P30872 whole entry): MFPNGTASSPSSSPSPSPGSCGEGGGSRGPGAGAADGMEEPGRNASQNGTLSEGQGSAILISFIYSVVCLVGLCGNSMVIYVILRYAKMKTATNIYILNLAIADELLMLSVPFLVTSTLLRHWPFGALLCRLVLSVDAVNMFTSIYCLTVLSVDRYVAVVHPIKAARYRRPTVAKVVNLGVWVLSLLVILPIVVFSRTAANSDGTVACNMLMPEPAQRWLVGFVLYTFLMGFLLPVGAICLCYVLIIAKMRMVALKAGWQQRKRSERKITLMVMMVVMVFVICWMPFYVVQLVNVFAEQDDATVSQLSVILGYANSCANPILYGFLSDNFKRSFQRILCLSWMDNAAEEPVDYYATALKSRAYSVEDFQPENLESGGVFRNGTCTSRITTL
Chain of Cytochrome P450 2C19 (P33261 whole entry): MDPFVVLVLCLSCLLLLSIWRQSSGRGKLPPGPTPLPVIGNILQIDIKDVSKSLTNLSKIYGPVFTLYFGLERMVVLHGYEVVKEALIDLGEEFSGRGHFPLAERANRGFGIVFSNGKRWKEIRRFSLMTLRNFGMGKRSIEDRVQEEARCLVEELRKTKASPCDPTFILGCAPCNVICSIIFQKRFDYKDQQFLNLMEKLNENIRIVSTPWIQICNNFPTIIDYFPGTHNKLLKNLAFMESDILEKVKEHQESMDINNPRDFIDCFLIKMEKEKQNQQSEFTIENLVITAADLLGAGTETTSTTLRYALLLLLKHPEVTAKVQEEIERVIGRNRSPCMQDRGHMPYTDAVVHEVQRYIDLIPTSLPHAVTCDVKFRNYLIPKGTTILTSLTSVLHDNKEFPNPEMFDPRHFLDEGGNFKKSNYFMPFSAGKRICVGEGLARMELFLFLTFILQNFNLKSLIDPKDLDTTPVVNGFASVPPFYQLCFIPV
Chain of Somatostatin receptor type 5 (Rattus norvegicus, UniProt P30938) (P30938 whole entry, looked up): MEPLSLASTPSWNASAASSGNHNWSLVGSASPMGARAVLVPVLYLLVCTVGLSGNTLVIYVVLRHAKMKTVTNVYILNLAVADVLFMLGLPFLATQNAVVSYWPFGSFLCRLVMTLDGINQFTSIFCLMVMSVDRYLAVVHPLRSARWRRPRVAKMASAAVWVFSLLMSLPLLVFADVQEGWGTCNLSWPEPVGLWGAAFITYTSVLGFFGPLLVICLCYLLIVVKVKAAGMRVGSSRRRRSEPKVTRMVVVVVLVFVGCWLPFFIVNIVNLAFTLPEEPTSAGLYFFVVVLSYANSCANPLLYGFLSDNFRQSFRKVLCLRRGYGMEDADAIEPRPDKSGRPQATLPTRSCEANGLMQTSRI
Chain of Cytochrome P450 2C9 (P11712 whole entry): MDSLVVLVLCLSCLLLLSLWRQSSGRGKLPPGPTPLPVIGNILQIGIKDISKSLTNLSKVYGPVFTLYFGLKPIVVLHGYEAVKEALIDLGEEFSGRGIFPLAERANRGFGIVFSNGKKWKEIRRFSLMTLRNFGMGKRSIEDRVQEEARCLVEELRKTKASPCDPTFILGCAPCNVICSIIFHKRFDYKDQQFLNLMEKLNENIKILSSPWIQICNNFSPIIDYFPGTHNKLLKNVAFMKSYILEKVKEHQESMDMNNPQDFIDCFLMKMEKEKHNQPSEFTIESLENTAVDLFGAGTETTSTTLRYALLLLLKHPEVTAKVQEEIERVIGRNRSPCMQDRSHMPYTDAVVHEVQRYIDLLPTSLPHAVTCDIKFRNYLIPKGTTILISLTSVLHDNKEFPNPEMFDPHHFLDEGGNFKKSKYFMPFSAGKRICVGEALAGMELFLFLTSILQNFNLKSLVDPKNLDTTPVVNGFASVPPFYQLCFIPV
Chain of Somatostatin receptor type 3 (P32745 whole entry): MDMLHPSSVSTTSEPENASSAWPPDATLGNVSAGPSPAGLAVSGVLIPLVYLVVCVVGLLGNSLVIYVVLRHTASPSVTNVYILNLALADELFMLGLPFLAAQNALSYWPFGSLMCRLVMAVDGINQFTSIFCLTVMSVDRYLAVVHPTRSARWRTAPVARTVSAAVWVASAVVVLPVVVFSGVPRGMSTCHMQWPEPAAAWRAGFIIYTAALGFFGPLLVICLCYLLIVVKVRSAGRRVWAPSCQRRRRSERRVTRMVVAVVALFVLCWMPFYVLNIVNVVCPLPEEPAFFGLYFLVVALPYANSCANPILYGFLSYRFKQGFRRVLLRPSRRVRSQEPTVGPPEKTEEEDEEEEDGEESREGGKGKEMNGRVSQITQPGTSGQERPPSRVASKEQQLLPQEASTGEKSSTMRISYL
Chain of Somatostatin receptor type 4 (P31391 whole entry): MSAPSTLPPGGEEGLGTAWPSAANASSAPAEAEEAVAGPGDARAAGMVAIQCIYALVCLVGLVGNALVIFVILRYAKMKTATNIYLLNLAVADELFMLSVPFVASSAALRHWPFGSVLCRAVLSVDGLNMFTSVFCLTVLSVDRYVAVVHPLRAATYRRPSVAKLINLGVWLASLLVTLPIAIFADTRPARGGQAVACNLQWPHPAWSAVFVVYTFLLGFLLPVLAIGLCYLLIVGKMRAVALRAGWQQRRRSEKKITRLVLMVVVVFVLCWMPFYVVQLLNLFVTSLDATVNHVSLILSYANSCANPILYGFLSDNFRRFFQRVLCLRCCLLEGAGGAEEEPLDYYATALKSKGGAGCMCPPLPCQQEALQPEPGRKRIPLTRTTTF

On to `NCC1CN(c2c(-c3cccc(Cl)c3)cncc2-c2nc3c(F)cc(F)cc3[nH]2)C1`, for which the EC50 in [1] is 0.36 nM.
For `Cc1ccc(F)c2[nH]c(-c3cncc(-c4cc(F)cc(C#N)c4)c3N3CC[C@H](N)C3)nc12`, the EC50 in data set [1] is 0.23 nM; in data set [2] it was more than 1000 nM; in data set [3] (read-out: pEC50 (converted)), 251 nM; in data set [4], 10 nM; in data set [5], 3.98 nM; in [6], 0.31 nM. This molecule also displayed a pEC50 in data set [2] of less than 6. Moreover, the IC50 in data set [7] was 280 nM; against Cytochrome P450 2D6 [8] it was 5300 nM; at Cytochrome P450 2D6 [9] it was 4000 nM; at Cytochrome P450 3A4 [10], more than 10000 nM; on Cytochrome P450 3A4 [11], more than 10000 nM.
With `N[C@H]1CCN(c2c(-c3cc(F)cc(Cl)c3)cncc2-c2nc3c(F)cccc3[nH]2)C1`, the CLH in data set [12] was 10 mL/min/g; in data set [13], 14 mL/min/g. Besides, the t1/2 in [14] came to 7.1 min. In [15], the Vdss was found to be 22 L/kg. Also, the concentration in data set [16] peaked (Cmax) at 0.181 µg/mL. The molecule also registered an AUC(0-inf) in data set [17] of 2.48 µg·h/mL. Also, in [18], the bioavailability turned out to be 74%. Moreover, the figures for the IC50 on Cytochrome P450 2D6 [19] and against Cytochrome P450 2D6 [20] were 400 nM and 90 nM, respectively.
Turning to `N#Cc1cc(-c2cncc(-c3nc4c(F)cccc4[nH]3)c2N2CC[C@H](N)C2)ccc1F`, the EC50 in data set [1] is 0.62 nM.
Still for that read-out and setting: next, `CC1(N)CCN(c2c(-c3cccc(C#N)c3)cncc2-c2nc3c(F)cccc3[nH]2)C1` (stereo not drawn): 0.071 nM; `Cc1cccc(-c2cncc(-c3nc4c(F)cc(F)cc4[nH]3)c2N2CC(CN)C2)c1`: 2.3 nM.
Regarding `Cc1cc(F)cc(-c2cncc(-c3nc4cc(F)ccc4[nH]3)c2N2CC(CN)C2)c1`, in data set [3] (read-out: EC50), the EC50 is more than 1000 nM.
On to `N#Cc1cccc(-c2cncc(-c3nc4c(F)cc(F)cc4[nH]3)c2N2CC(CN)C2)c1`, for which, in data set [1], the EC50 worked out at 2.6 nM.
Regarding `Cc1cc(F)cc(-c2cncc(-c3nc4c(F)cc(F)cc4[nH]3)c2N2CC(C)(CN)C2)c1`, the EC50 in [1] amounted to 2.3 nM.
Same read-out and setting: next, `Cc1cc(F)cc(-c2cncc(-c3nc4c(F)cc(F)cc4[nH]3)c2N2CC(CN)C2)c1`: 2.2 nM.
For `NCC1CN(c2c(-c3cccc(F)c3)cncc2-c2nc3c(F)cc(F)cc3[nH]2)C1`, the EC50 in data set [1] was determined as 6.1 nM.
The same measure, in the same setting: next, `Cc1cc(F)cc(-c2cncc(-c3nc4c(C#N)cccc4[nH]3)c2N2CC(CN)C2)c1`: 19 nM; `CC(N)C1CN(c2c(-c3cc(F)cc(C(F)(F)F)c3)cncc2-c2nc3c(F)cc(F)cc3[nH]2)C1` (stereo not drawn): 0.27 nM; `N#Cc1ccc(-c2cncc(-c3nc4c(F)cccc4[nH]3)c2N2CC[C@H](N)C2)cc1F`: 45 nM.
In the case of `Cc1cc(F)cc(-c2cncc(-c3nc4c(Cl)cccc4[nH]3)c2N2CC(CN)C2)c1`, the EC50 in data set [1] came to 1.2 nM.
On to `Cc1cccc2[nH]c(-c3cncc(-c4cc(F)cc(C#N)c4)c3N3CC[C@H](N)C3)nc12`, for which the figures for the CLH in data set [12], in data set [13] and in [25] were 2 mL/min/g, 2 mL/min/g and 94.3 mL/min/g, respectively. For the same molecule, the Cmax in data set [16] is 0.078 µg/mL; in data set [30], 0.324 µg/mL. Moreover, the AUC(0-inf) stood at 0.951 µg·h/mL in data set [17] and 4.66 µg·h/mL in data set [31]. The bioavailability in [18] amounted to 33%; in data set [32], 55%. The EC50 in data set [6] is […]. For the same molecule, the IC50 in data set [7] was […]; against Cytochrome P450 2C9 it was more than 10000 nM; against Cytochrome P450 2C19, more than 10000 nM; at Cytochrome P450 2D6 [8] it was 10000 nM; against Cytochrome P450 2D6 [9], 7500 nM; against Cytochrome P450 3A4 [10], more than 10000 nM. The same molecule yielded an IC50 at Cytochrome P450 3A4 [11] of more than 10000 nM. The half-life was more than 693 min in [21], more than 693 min in [22], […] in data set [23] and […] in data set [24]. Besides, the t1/2 was […] in [26] and 16.9 min in [27]. Besides, the Vdss in data set [28] turned out to be 17 L/kg; in [29], 12.9 L/kg.
As for `N#Cc1cccc(-c2cncc(-c3nc4c(F)cccc4[nH]3)c2N2CCC(N)(CO)C2)c1` (stereo not drawn), the EC50 in data set [1] turned out to be 1 nM.
The same measure, in the same setting: the figure for `Cc1c(F)ccc2[nH]c(-c3cncc(-c4cc(F)cc(C#N)c4)c3N3CC[C@H](N)C3)nc12` is 0.65 nM; for `NCC1CN(c2c(-c3nc4c(F)cc(F)cc4[nH]3)cncc2-c2ccccc2F)C1` it is 400 nM; for `N#Cc1cccc(-c2cncc(-c3nc4c(F)cccc4[nH]3)c2N2CC[C@H](N)C2)c1` it is 0.55 nM.
Still for that read-out and setting: the figure for `Cc1cc(F)cc2[nH]c(-c3cncc(-c4cc(F)cc(C#N)c4)c3N3CC[C@H](N)C3)nc12` is 2.1 nM; for `Cc1cccc2c1nc(-c1cncc(-c3cc(F)cc(C#N)c3)c1N1CC[C@H](N)C1)n2C` it is 4.2 nM.
Still for that read-out and setting: next, `C[C@]1(N)CCN(c2c(-c3cccc(C#N)c3)cncc2-c2nc3c(F)cccc3[nH]2)C1`: 0.047 nM; `N#Cc1cccc(-c2cncc(-c3nc4c(F)cccc4[nH]3)c2N2CC(N)C(C(F)(F)F)C2)c1` (mixture of isomers): 42 nM; `N#Cc1cccc(-c2cncc(-c3nc4c(F)cccc4[nH]3)c2N2C[C@@H](N)[C@H](O)C2)c1` (racemic): 46 nM.

The values are drawn from ChEMBL document CHEMBL5113417, “Discovery of 4-(3-aminopyrrolidinyl)-3-aryl-5-(benzimidazol-2-yl)-pyridines as potent and selective SST5 agonists for the treatment of congenital hyperinsulinism” (Bioorg Med Chem Lett, 2022).
